Reference: the supplement of paper PMC10307832

How the values were obtained:
Test in all cases: relative viability (nuclei count vs DMSO), 5 days (fraction); higher = more cells survive
Carboplatin + OSI-027 = compound: C1CC(C1)(C(=O)O)C(=O)O.[NH2-].[NH2-].[Pt+2] [Carboplatin] + COc1cccc2cc(-c3nc([C@H]4CC[C@H](C(=O)O)CC4)n4ncnc(N)c34)[nH]c12 [OSI-027] (partner 0.5 µM)
Procedure, shortened: (§1)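 Dosing by pin tool came one day after lung cancer cell lines were seeded in 1536-well plates, using either one drug or a fixed anchor-drug dose plus five library-drug doses (not always all listed) in √10 steps. After 5 days, nuclei were counted on 4× images. Relative viability is treated-well nuclei count divided by vehicle-well nuclei count, and values are medians of duplicate plates.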

MLN4924 + Alpelisib = compound: NS(=O)(=O)OC[C@@H]1C[C@@H](n2ccc3c(N[C@H]4CCc5ccccc54)ncnc32)C[C@@H]1O [MLN4924] + Cc1nc(NC(=O)N2CCC[C@H]2C(N)=O)sc1-c1ccnc(C(C)(C)C(F)(F)F)c1 [Alpelisib] (partner 2 µM)
Procedure, shortened: as §1

GSK126 + OSI-027 = compound: CC[C@H](C)N1C=C(C2=C(C=C(C=C21)C3=CN=C(C=C3)N4CCNCC4)C(=O)NCC5=C(C=C(NC5=O)C)C)C [GSK126] + COc1cccc2cc(-c3nc([C@H]4CC[C@H](C(=O)O)CC4)n4ncnc(N)c34)[nH]c12 [OSI-027] (partner 0.5 µM)
Procedure, shortened: as §1

Carboplatin + Vorinostat = compound: C1CC(C1)(C(=O)O)C(=O)O.[NH2-].[NH2-].[Pt+2] [Carboplatin] + O=C(CCCCCCC(=O)Nc1ccccc1)NO [Vorinostat] (partner 1 µM)
Procedure, shortened: as §1

Cell Line	relative viability (Carboplatin + OSI-027; first compound 0.08 µM)	relative viability (Carboplatin + OSI-027; first compound 0.253 µM)	relative viability (Carboplatin + OSI-027; first compound 0.8 µM)	relative viability (Carboplatin + OSI-027; first compound 2.53 µM)	relative viability (Carboplatin + OSI-027; first compound 8 µM)	relative viability (MLN4924 + Alpelisib; first compound 0.04 µM)	relative viability (MLN4924 + Alpelisib; first compound 0.1265 µM)	relative viability (MLN4924 + Alpelisib; first compound 0.4 µM)	relative viability (MLN4924 + Alpelisib; first compound 1.265 µM)	relative viability (MLN4924 + Alpelisib; first compound 4 µM)	relative viability (GSK126 + OSI-027; first compound 0.08 µM)	relative viability (GSK126 + OSI-027; first compound 0.253 µM)	relative viability (GSK126 + OSI-027; first compound 0.8 µM)	relative viability (GSK126 + OSI-027; first compound 2.53 µM)	relative viability (GSK126 + OSI-027; first compound 8 µM)	relative viability (Carboplatin + Vorinostat; first compound 0.08 µM)	relative viability (Carboplatin + Vorinostat; first compound 0.253 µM)	relative viability (Carboplatin + Vorinostat; first compound 0.8 µM)	relative viability (Carboplatin + Vorinostat; first compound 2.53 µM)	relative viability (Carboplatin + Vorinostat; first compound 8 µM)
NCI-H1793	0.32	0.337	0.284	0.296	0.312	0.804	0.801	0.732	0.513	0.276	0.288	0.241	0.318	0.248	0.32	0.884	0.796	0.62	0.682	0.745
HCC-44	0.53	0.572	0.5	0.484	0.292	0.7	0.347	0.162	0.15	0.134	0.623	0.624	0.595	0.562	0.706	1.14	1.11	1.03	0.999	0.957
NCI-H3122	0.985	1.24	0.828	0.732	0.752	0.799	0.452	0.251	0.188	0.133	1.23	0.953	0.963	1.01	0.896	0.874	0.729	0.99	1.06	1
COR-L23	0.894	0.903	0.618	0.466	0.231	0.722	0.689	0.561	0.159	0.116	1	0.725	0.645	0.824	0.694	0.588	0.446	0.36	0.262	0.149
201T	0.828	0.749	0.824	0.68	0.349	1.24	1.11	1.17	0.344	0.392	0.822	0.772	0.736	0.865	0.759	1.06	0.948	0.995	0.962	0.926
NCI-H23	0.843	0.599	0.671	0.575	0.435	0.611	0.5	0.28	0.149	0.155	0.697	0.6	0.668	0.682	0.559	0.658	0.632	0.522	0.62	0.343
LCLC-103H	0.456	0.544	0.5	0.468	0.482	1.14	1.18	1.12	0.234	0.342	0.514	0.453	0.533	0.435	0.456	0.804	0.785	0.72	0.768	0.692
NCI-H2087	0.656	0.56	0.536	0.508	0.41	1.13	0.815	0.381	0.178	0.136	0.674	0.466	0.595	0.706	0.786	0.981	1.23	0.62	0.531	0.396
NCI-H1944	0.539	0.407	0.41	0.382	0.317	1.02	1.02	1.04	0.23	0.188	0.456	0.423	0.423	0.369	0.449	0.533	0.61	0.59	0.523	0.368
HARA	0.619	0.644	0.476	0.462	0.385	0.716	0.576	0.249	0.0868	0.0836	0.543	0.541	0.476	0.466	0.392	0.471	0.561	0.472	0.519	0.35
NCI-H2347	0.42	0.421	0.409	0.423	0.324	1.02	0.865	0.638	0.33	0.382	0.433	0.356	0.49	0.463	0.346	0.555	0.586	0.646	0.595	0.526
COR-L 105	0.835	0.776	0.696	0.62	0.537	0.836	0.702	0.413	0.257	0.31	0.694	0.666	0.616	0.72	0.771	0.817	0.855	0.92	0.739	0.48
A-427	0.449	0.531	0.479	0.499	0.39	0.728	0.334	0.28	0.183	0.2	0.491	0.515	0.43	0.409	0.456	0.865	0.854	0.864	0.864	0.829
HCC-15	0.833	0.664	0.689	0.635	0.439	0.537	0.23	0.163	0.0818	0.0862	0.752	0.687	0.696	0.713	0.695	0.923	0.904	0.859	0.743	0.558
NCI-H1623	0.481	0.404	0.455	0.41	0.385						0.414	0.473	0.425	0.504	0.401					
NCI-H2342	0.785	0.731	0.717	0.534	0.608						0.678	0.616	0.622	0.626	0.669	0.751	0.788	0.828	0.865	0.744
